Measured values published in publication PMC8409457, “An evolution-inspired strategy to design disulfide-rich peptides tolerant to extensive sequence manipulation” (Chemical Science, 2021).
Where a SMILES comes first, the peptide text is derived from it. Bridges are numbered along the chain shown (N, C = ends).

Tests used:
streptavidin = target: T1, streptavidin (Streptomyces avidinii, UniProt P22629); experiment: Surface plasmon resonance (SPR), binding to immobilized streptavidin; settings: SPR sensorgrams, peptide 20–320 nM
T1 construct: purchased Biosynthesis Biotechnology (Beijing, China)
T1 sequence (P22629 25-183): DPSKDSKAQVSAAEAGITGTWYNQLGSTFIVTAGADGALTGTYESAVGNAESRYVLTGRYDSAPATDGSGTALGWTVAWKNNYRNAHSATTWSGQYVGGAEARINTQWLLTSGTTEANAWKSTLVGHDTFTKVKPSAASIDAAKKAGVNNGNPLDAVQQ
Method: (§1) 1.7 Surface plasmon resonance (SPR) assays
(§2) SPR assays were performed using a Biacore T200. Target proteins (Sumo-Bcl-2 and […]
(§3) to reach a target response of 1000 RU. Flow cell Fc3 that was not immobilized with proteins was used as the reference channel. […]

Bcl-2 = target: T2, Bcl-2 (Homo sapiens, UniProt P10415); experiment: Surface plasmon resonance (SPR), binding to immobilized Sumo-Bcl-2; settings: for Binding affinity to Bcl-2 (SPR), in words: SPR sensorgrams, peptide 160–2560 nM
T2 construct: made in house; host or cells: E. coli
T2 sequence (P10415 whole entry, species assumed): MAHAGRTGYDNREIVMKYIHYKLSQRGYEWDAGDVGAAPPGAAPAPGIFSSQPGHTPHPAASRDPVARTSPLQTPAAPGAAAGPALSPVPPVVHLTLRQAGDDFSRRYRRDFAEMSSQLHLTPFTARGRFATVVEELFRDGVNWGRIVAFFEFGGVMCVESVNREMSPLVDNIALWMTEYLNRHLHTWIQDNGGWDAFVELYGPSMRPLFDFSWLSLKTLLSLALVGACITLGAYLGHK
Method: as §1, §2, §3

chymotrypsin = experiment: Proteolytic stability of peptides toward chymotrypsin; format: in vitro ADME; settings: 100 μM peptide, phosphate buffer 100 mM pH 7.4, 37 °C, HPLC, 0–180 min
Method: 1.9 Proteolytic stability of peptides
100 μM 15-Ala, 16-Ala, oxidized 15, and oxidized 16 were respectively treated with phosphate buffer (pH = 7.4, 100 mM) containing chymotrypsin at 37 °C . The chymotrypsin concentration used for the digestion of 15 - Ala and oxidized 15 is 0.3 μ g/mL . The chymotrypsin concentration used for the digestion of 16 - Ala and oxidized 16 is 5.0 μ g/mL . At pred e fined time s , 50 μ L aliqu ots were taken with a pipette , quenched with 70 μ L 10% HPO 3 , and analyzed by HPLC. […]

[1] = Thermal denaturation monitored using circular dichroism; format: physicochemical; settings: CD, 50 μM peptide in water, 25–95 °C, ellipticity at 220 nm
Method: Circular dichroism (CD) spectra were measured using a 1.0 mm path length cuvette at room temperature (25 ℃). All measured peptides were dissolved in water to reach a concentration of 50
μM. The baseline signal (pure aqueous solution) were subtracted from each spectrum. CD spectra were recorded in a wavelength range of 190 ‒ 260 nm with a bandwidth of 2.0 nm, a date pitch of 1.0 nm, a response time of 8. 0 s, and a scanning speed of 50 nm/min. The thermal denaturation CD spectra were recorded in a temperature range of 25 ‒ 95 ℃ with a heating rate of 10 ℃/min. For temperature melts, the change of ellipticity at 220 nm was monitored as temperature increased f rom 25 to 95 °C in an increment of 10 °C. Other experimental conditions were consistent with those of […]

MDM2 = MDM2 (Homo sapiens, UniProt Q00987); experiment: Fluorescence polarization competition assay, binding to MDM2
Chain of MDM2 (Q00987 whole entry, species assumed): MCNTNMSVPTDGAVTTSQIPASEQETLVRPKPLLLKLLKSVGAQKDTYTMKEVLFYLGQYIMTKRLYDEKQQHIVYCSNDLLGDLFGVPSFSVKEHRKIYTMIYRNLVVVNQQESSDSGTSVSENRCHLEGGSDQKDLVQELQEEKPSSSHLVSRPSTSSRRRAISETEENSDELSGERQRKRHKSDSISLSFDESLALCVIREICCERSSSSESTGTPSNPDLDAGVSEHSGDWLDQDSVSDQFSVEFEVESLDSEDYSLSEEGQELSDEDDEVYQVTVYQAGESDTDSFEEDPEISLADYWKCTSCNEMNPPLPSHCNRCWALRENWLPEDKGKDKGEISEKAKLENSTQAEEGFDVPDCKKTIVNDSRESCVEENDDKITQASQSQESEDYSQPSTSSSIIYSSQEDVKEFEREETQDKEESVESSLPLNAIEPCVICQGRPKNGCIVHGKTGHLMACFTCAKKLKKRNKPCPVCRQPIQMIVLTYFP
Method: 1.6 Fluorescence polarization (FP) assays
Infinite® 200 PRO Microplate Reader. […]
data with the single-site binding model. […]
described above, and fluorescence anisotropies were recorded. The Ki value of the binding between […]
been described in our previous reports.1,6
as §1, §2

| Molecule | Binding affinity to streptavidin (SPR), in words (streptavidin) | Binding affinity to Bcl-2 (SPR), in words (Bcl-2) | Stability to heat treatment (aggregation) [1] | Binding affinity to MDM2 (FP competition), in words (MDM2) | also measured |
| --- | --- | --- | --- | --- | --- |
| Ac-CGSGSGSGCGCPCIWPELCPWIRSC-NH2 (also: bicyclic or more (positions not given here)) [compound 11, original peptide template of the 11-X14 library] | no binding affinity |  |  |  |  |
| CC[C@H](C)[C@@H]1NC(=O)[C@@H]2CSSC[C@H](NC(=O)[C@H](CC(C)C)NC(=O)[C@H](CCC(=O)O)NC(=O)[C@@H]3CCCN3C(=O)[C@H](Cc3ccccc3)NC1=O)C(=O)N1CCC[C@H]1C(=O)N[C@@H](Cc1c[nH]c3ccccc13)C(=O)N[C@@H]([C@@H](C)CC)C(=O)N[C@@H](C(C)C)C(=O)N[C@H]1CSSC[C@H](NC(=O)CNC(C)=O)C(=O)N[C@@H](CCC(=O)O)C(=O)N[C@@H](CCCCN)C(=O)N[C@@H](C)C(=O)N[C@@H]([C@@H](C)O)C(=O)N[C@@H](CCC(=O)O)C(=O)N[C@@H](CO)C(=O)N[C@@H](CCC(=O)O)C(=O)N[C@@H](CO)C(=O)N3CCC[C@H]3C(=O)N[C@@H](CSSC[C@@H](C(N)=O)NC1=O)C(=O)N1CCC[C@H]1C(=O)N2 [Oxidized 15] (Ac-GCEKATESESPCPCIFPELCPWIVCC-NH2; disulfide 2-25, 12-26, 14-20) | no binding affinity | no binding affinity | no aggregation was observed |  | Stability toward proteolysis by chymotrypsin compared to linear analog (chymotrypsin; chymotrypsin 0.3 μg/mL, versus 15-Ala): significantly more stable |
| Ac-GAMILLDTDIWAPASHPYAAPENIAA-NH2 [16-Ala, linear counterpart (Cys-to-Ala mutant) of 16] |  | negligible affinity |  |  |  |
| CC[C@H](C)[C@@H]1NC(=O)[C@H](CC(N)=O)NC(=O)[C@H](CCC(=O)O)NC(=O)[C@@H]2CCCN2C(=O)[C@@H]2CSSC[C@H](NC(=O)[C@@H]3CCCN3C(=O)[C@@H]3CSSC[C@@H](C(N)=O)NC(=O)[C@H](CSSC[C@H](NC(=O)CNC(C)=O)C(=O)N[C@@H](CCSC)C(=O)N[C@@H]([C@@H](C)CC)C(=O)N[C@@H](CC(C)C)C(=O)N[C@@H](CC(C)C)C(=O)N[C@@H](CC(=O)O)C(=O)N[C@@H]([C@@H](C)O)C(=O)N[C@@H](CC(=O)O)C(=O)N[C@@H]([C@@H](C)CC)C(=O)N[C@@H](Cc4c[nH]c5ccccc45)C(=O)N3)NC1=O)C(=O)N[C@@H](CO)C(=O)N[C@@H](Cc1c[nH]cn1)C(=O)N1CCC[C@H]1C(=O)N[C@@H](Cc1ccc(O)cc1)C(=O)N[C@@H](C)C(=O)N2 [Oxidized 16] | negligible binding affinity |  | no aggregation was observed | negligible binding affinity | kd, binding kinetics with Bcl-2 (SPR) (Bcl-2; Biacore T200, 1:1 binding model, peptide 0.16–2.56 μM): 0.0498 s⁻¹; kon (Bcl-2; read-out: ka, binding kinetics with Bcl-2 (SPR)): 126000 M⁻¹ s⁻¹; Stability toward proteolysis by chymotrypsin compared to linear analog (chymotrypsin; chymotrypsin 5.0 μg/mL, versus 16-Ala): significantly more stable |
| CC[C@H](C)[C@@H]1NC(=O)[C@H](Cc2c[nH]c3ccccc23)NC(=O)[C@@H]2CCCN2C(=O)[C@@H]2CSSC[C@H](NC(=O)[C@@H]3CCCN3C(=O)[C@@H]3CSSC[C@@H](C(N)=O)NC(=O)[C@H](CSSC[C@H](NC(C)=O)C(=O)NCC(=O)N[C@@H](CO)C(=O)NCC(=O)N[C@@H](CO)C(=O)NCC(=O)N[C@@H](CO)C(=O)NCC(=O)N[C@@H](CO)C(=O)NCC(=O)N3)NC(=O)[C@H](CCCNC(=N)N)NC1=O)C(=O)N[C@@H]([C@@H](C)CC)C(=O)N[C@@H](Cc1c[nH]c3ccccc13)C(=O)N1CCC[C@H]1C(=O)N[C@@H](CCC(=O)O)C(=O)N[C@@H](CC(C)C)C(=O)N2 [compound 8] (Ac-CGSGSGSGSGCPCIWPELCPWIRCC-NH2; disulfide 1-24, 11-25, 13-19) |  |  |  |  | Ki (MDM2; PBS pH 7.4, room temperature, peptides HPLC-purified >95%): 164 nM |
| CSCC[C@@H]1NC(=O)[C@@H]2CCCN2C(=O)[C@@H]2CSSC[C@H](NC(=O)[C@@H]3CCCN3C(=O)[C@@H](NC(=O)[C@H](Cc3ccccc3)NC(=O)[C@@H]3CSSC[C@H](NC(=O)CNC(C)=O)C(=O)NCC(=O)N[C@@H](CO)C(=O)N[C@@H](CC(=O)O)C(=O)N[C@@H](CCC(=O)O)C(=O)N[C@@H](C)C(=O)N3)CSSC[C@@H](C(N)=O)NC(=O)[C@H](Cc3c[nH]cn3)NC(=O)[C@H](CCC(N)=O)NC(=O)[C@H](C)NC1=O)C(=O)N[C@@H](CO)C(=O)N[C@@H](Cc1c[nH]cn1)C(=O)N1CCC[C@H]1C(=O)N[C@@H](CCC(=O)O)C(=O)N[C@@H](CC(N)=O)C(=O)N2 [compound 17] (Ac-GCGSDEACFCPCSHPENCPMAQHC-NH2; disulfide 2-8, 10-24, 12-18) |  | negligible binding affinity |  | negligible binding affinity |  |
